Drawing on US9718804B2, “GSK-3 inhibitors” (BRISTOL-MYERS SQUIBB COMPANY, priority 2013, dated 2017), this text covers IC50 for ten compounds.

The test system of assay [1] is pTau. The assay can be described thus: pTau assay (no method described). The format is cell-based.
For assay [2], the target named is GSK3β (Homo sapiens, UniProt P49841). The assay can be described thus: GSK3β kinase assay (Caliper LabChip, fluoresceinated peptide substrate). The format is biochemical. Summed up:
(§1)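 Eleven-point compound titrations (10 mM DMSO stocks) incubated with kinase and fluorescent peptide for 20 h at room temperature before EDTA quench. Substrate-to-product conversion measured by microfluidic mobility shift; IC50 from non-linear fitting.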

Assay [3] has as its target GSK3α (Homo sapiens, UniProt P49840). The experiment in a line: GSK3α kinase assay (Caliper LabChip, fluoresceinated peptide substrate). It counts as biochemical. Summed up:
as §1

Setting [4] is: first value of the cell, 250 pM enzyme, 20 uM ATP, 20 hours at room temperature, read-out: GSK3β/α (nM): GSK3β IC50.

Where two headings read alike, the source gives them in different places.

Sequence of GSK3α (P49840 whole entry, species assumed): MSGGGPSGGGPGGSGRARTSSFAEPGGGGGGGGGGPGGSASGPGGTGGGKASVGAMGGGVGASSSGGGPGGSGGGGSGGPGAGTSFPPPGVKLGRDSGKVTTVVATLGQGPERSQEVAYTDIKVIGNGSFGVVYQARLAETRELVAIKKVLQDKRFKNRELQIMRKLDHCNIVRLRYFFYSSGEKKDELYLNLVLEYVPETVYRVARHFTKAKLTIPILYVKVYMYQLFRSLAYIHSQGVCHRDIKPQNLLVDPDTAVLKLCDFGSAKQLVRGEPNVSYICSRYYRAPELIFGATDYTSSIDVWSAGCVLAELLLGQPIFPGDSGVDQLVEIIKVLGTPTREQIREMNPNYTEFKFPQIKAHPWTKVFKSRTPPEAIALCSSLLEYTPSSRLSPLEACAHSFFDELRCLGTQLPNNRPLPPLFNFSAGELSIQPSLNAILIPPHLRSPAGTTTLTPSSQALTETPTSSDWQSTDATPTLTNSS
Sequence of GSK3β (P49841 whole entry, species assumed): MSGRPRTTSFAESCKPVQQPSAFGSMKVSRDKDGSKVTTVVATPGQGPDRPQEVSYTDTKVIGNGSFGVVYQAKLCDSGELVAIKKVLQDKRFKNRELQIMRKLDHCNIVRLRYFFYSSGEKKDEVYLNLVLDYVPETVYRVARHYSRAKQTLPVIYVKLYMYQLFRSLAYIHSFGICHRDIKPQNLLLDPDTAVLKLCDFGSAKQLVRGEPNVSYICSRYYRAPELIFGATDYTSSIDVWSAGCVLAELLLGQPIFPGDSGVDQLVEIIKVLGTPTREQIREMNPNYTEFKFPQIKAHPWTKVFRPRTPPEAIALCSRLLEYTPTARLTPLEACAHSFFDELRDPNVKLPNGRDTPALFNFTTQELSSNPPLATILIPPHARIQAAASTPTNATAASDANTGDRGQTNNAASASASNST

With `CC(C)(C)[S+]([O-])c1ccncc1NC(=O)c1ccnc(Nc2ccc(C(F)(F)F)cn2)c1` (stereo not drawn) [Example 178, N-(4-(tert-Butylsulfinyl)pyridin-3-yl)-2-((5-(trifluoromethyl)pyridin-2-yl)amino)isonicotinamide], the IC50 came out at 13 nM in assay [1], 0.12 nM in assay [2] (setting [4]) and 1.2 nM in assay [3].
With `CC1(c2cc(F)ncc2NC(=O)c2ccnc(Nc3ccc(C(F)(F)F)cn3)c2)OCCO1` [Example 82, N-(6-Fluoro-4-(2-methyl-1,3-dioxolan-2-yl)pyridin-3-yl)-2-((5-(trifluoromethyl)pyridin-2-yl)amino)isonicotinamide], the results for the IC50 in assay [1], in assay [2] (setting [4]) and in assay [3] were 230 nM, 7.1 nM and 1.9 nM, respectively.
In the same order, the values of `CCC(O)(c1cc(Cl)ncc1NC(=O)c1ccnc(Nc2ccc(C(F)(F)F)cn2)c1)C1CC1` (stereo not drawn) [Example 101, N-(6-Chloro-4-(1-cyclopropyl-1-hydroxypropyl)pyridin-3-yl)-2-((5-(trifluoromethyl)pyridin-2-yl)amino)isonicotinamide] are 660 nM, 11 nM and 7.4 nM.
In the same order, the values of `CC1(c2cnncc2NC(=O)c2ccnc(Nc3ccc(C(F)(F)F)cn3)c2)OCCO1` [Example 200, N-(5-(2-Methyl-1,3-dioxolan-2-yl)pyridazin-4-yl)-2-((5-(trifluoromethyl)pyridin-2-yl)amino)isonicotinamide] are 3.2 nM, 0.62 nM and 0.39 nM.
Regarding `CC1(c2cc(Cl)ncc2NC(=O)c2ccnc(Nc3ccc(C(F)(F)F)cn3)c2)CCCO1` (stereo not drawn) [Example 77, N-(6-Chloro-4-(2-methyltetrahydrofuran-2-yl)pyridin-3-yl)-2-((5-(trifluoromethyl)pyridin-2-yl)amino)isonicotinamide], the IC50 in assay [1] was found to be 31 nM; in assay [2] (setting [4]), 0.63 nM; in assay [3], 0.35 nM.
Turning to `O=C(Nc1cnc(F)cc1N1CCC(F)(F)CC1)c1ccnc(Nc2ccc(C(F)(F)F)cn2)c1` [Example 71, N-(6-Fluoro-4-(4,4-difluoropiperidin-1-yl)pyridin-3-yl)-2-((5-(trifluoromethyl)pyridin-2-yl)amino)isonicotinamide], the IC50 was determined as 60 nM in assay [1], 1.3 nM in assay [2] (setting [4]) and 0.36 nM in assay [3].
Take `CCC1(c2cc(Cl)ncc2NC(=O)c2ccnc(Nc3ccccn3)c2)OCCO1` [Example 108, N-(6-Chloro-4-(2-ethyl-1,3-dioxolan-2-yl)pyridin-3-yl)-2-(pyridin-2-ylamino)isonicotinamide]: the IC50 in assay [1] was found to be 30 nM; in assay [2], 1.4 nM; in assay [3] (second value of the cell, 250 pM enzyme, 20 uM ATP, 20 hours at room temperature, read-out: GSK3β/α (nM): GSK3α IC50), 0.95 nM.
Consider `Cc1nc(Nc2cc(C(=O)Nc3cncc(-c4ccccc4F)c3)ccn2)ccc1C#N` [Example 155, 2-((5-Cyano-6-methylpyridin-2-yl)amino)-N-(5-(2-fluorophenyl)pyridin-3-yl)isonicotinamide], for which the IC50 amounted to 570 nM in assay [1], 3.6 nM in assay [2] (setting [4]) and 1.2 nM in assay [3].
On to `O=C(Nc1cnc(F)cc1-c1ccccc1)c1ccnc(Nc2ccc(C(F)(F)F)cn2)c1` [Example 67, N-(6-Fluoro-4-phenylpyridin-3-yl)-2-((5-(trifluoromethyl)pyridin-2-yl)amino)isonicotinamide], for which the IC50 in assay [1] is 524 nM; in assay [2] (setting [4]) it was 7 nM; in assay [3], 4 nM.
Taken in the same sequence, the figures for `CC1(c2ccncc2NC(=O)c2ccnc(Nc3ccc(C(F)(F)F)cn3)c2)OCCO1` [Example 33, N-(4-(2-Methyl-1,3-dioxolan-2-yl)pyridin-3-yl)-2-((5-(trifluoromethyl)pyridin-2-yl)amino)isonicotinamide] were 0.55 nM, 0.29 nM and 0.18 nM.
